Here are results for four compounds from ChEMBL document CHEMBL5154916, “Multiparameter Optimization of Naphthyridine Derivatives as Selective α5-GABAA Receptor Negative Allosteric Modulators” (J Med Chem, 2022).

The term AUC(0-inf) denotes the area under the concentration-time curve extrapolated to infinity. A low value points to low exposure. For orientation: Papp means a coefficient for how fast a substance crosses the barrier. As a reminder, the half-life is the time needed for the level to fall by half in the phase considered. Low readings indicate fast loss, high ones slow loss. Usually bioavailability stands for dose-corrected exposure relative to a reference, in per cent. Lower therefore signals little systemic uptake. Broadly, the Ki is a measure of affinity in units of concentration, obtained from inhibition or displacement. Usually Tmax stands for the time at which the peak concentration occurs. By Cmax is commonly meant the highest concentration seen after dosing. What is called Vd is a proportionality between amount in the body and measured concentration, not a real space. Lower therefore signals confinement near the circulation. For orientation: clearance means the volume of plasma or blood freed of the substance per unit of time. Low values mean inefficient removal, high ones efficient removal. As usually defined, the IC50 is the concentration that inhibits the measured activity by half. Low values mean greater potency in that assay, high ones weaker potency in that assay.

The nature of series [1]: Metabolic stability in human liver microsomes assessed as intrinsic clearance at 2.5 uM. As to conditions: read-out: CLH. In kind it is ADME, Microsome.
The nature of series [2]: AUC (0 to infinity) in Wistar rat total plasma at 1 mg/kg, iv by HPLC-MS/MS analysis. In kind it is ADME, organism-based. Further details: time infinity, dose 1 mg/kg, route iv.
A short description of series [3]: Metabolic stability in Wistar rat liver microsomes assessed as intrinsic clearance at 2.5 uM. The series is classed as ADME, Microsome. As to conditions: read-out: CLH. A general note: Microsomes from liver hold many membrane-bound enzymes, among them those of drug oxidation.
A short description of series [4]: Apparent permeability in human Caco-2 cells at 10 uM by HPLC-UV analysis. The series is classed as ADME, cell-based. In general terms: Passage across Caco-2 layers is used to estimate intestinal permeability.
Series [5] can be described thus: Passive permeability in human Caco-2 cells assessed as permeability damage ratio at 10 uM by HPLC-UV analysis. In kind it is ADME, cell-based. The note with it: caco-2, 10 µM.
Series [6] is described as follows: Ratio of drug level in brain to plasma in Wistar rat at 3 mg/kg, po measured at 1.5 hr post dose. The series is classed as ADME, organism-based. As to conditions: brain and plasma, read-out: BPR.
A short description of series [7]: Half life in Wistar rat total plasma at 1 mg/kg, po by HPLC-MS/MS analysis. In kind it is ADME, organism-based.
For series [8], the target named is T1, GABA-A receptor; alpha-5/beta-3/gamma-2 (Homo sapiens) (UniProt P18507+P28472+P31644). In words: Negative allosteric modulation activity at human recombinant alpha5beta3gamma2 GABAA receptor stably expressed in HEK293 cells assessed as modulation at alpha5 subunit at 10 uM by Patch clamp method. The series is classed as cell-based. Background: In patch-clamp work, channel activity is measured electrically.

Series [9] is described as follows: Bioavailability in Wistar rat total plasma at 1 mg/kg, iv by HPLC-MS/MS analysis. The series is classed as ADME, organism-based.
Series [10] addresses T1, GABA-A receptor; alpha-5/beta-3/gamma-2 (Homo sapiens). In words: Negative allosteric modulation activity at human recombinant alpha5beta3gamma2 GABAA receptor stably expressed in HEK293 cells assessed as modulation at alpha5 subunit at 1 uM by Patch clamp method. In kind it is cell-based. As to conditions: filed as negative allosteric modulator.
Series [11] has as its target T2, GABA-A receptor; alpha-5/beta-3/gamma-2 (Homo sapiens, UniProt P18507+P28472+P31644).
T2 sequence (P18507 whole entry): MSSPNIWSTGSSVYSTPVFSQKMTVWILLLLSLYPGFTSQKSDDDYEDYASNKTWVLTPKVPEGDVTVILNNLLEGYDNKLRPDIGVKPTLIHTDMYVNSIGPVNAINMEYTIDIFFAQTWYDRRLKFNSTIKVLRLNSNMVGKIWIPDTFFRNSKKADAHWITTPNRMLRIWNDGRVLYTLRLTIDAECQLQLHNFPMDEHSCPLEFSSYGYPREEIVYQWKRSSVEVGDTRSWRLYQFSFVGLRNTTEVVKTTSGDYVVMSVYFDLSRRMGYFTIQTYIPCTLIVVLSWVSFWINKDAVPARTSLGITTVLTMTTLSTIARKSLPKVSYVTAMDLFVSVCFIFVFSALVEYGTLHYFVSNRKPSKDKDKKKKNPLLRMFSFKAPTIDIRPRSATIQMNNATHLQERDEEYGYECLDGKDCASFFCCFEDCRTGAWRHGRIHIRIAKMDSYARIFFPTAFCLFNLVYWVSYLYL
T2 sequence (P28472 whole entry): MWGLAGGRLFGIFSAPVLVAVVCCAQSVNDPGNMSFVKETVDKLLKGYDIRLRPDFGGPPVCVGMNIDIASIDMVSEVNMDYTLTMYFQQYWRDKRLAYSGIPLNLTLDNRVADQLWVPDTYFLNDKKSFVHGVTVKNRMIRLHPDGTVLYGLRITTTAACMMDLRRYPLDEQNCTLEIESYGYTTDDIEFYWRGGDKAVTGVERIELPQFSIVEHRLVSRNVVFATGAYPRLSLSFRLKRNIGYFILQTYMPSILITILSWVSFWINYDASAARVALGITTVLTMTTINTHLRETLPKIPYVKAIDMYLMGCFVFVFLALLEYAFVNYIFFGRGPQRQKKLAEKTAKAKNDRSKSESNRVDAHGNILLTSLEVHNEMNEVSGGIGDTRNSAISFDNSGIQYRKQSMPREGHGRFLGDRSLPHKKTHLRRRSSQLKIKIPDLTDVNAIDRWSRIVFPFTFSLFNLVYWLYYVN
T2 sequence (P31644 whole entry): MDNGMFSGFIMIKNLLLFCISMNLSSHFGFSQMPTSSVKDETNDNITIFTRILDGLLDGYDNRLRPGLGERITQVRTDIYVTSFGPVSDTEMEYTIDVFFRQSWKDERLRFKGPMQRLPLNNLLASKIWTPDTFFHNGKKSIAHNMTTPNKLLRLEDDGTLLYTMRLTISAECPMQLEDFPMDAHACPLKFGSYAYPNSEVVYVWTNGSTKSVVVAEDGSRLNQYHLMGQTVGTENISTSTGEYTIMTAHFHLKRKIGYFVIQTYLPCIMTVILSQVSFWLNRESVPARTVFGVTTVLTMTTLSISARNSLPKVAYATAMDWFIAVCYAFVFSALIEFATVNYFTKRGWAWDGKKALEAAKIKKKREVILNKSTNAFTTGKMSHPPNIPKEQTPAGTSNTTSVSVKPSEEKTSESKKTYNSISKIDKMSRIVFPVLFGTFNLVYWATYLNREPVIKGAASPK
In words: Displacement of [3H]Ro151788 from human recombinant alpha5beta3gamma2 GABAA receptor stably expressed in HEK293 cell membrane assessed as inhibition constant by radioligand binding assay. In kind it is cell membranes.

Series [12] concerns the target GABA-A receptor; alpha-1/beta-3/gamma-2 (Homo sapiens) (UniProt P14867+P18507+P28472). The series can be described thus: Negative allosteric modulation activity at human recombinant alpha1beta3gamma2 GABAA receptor stably expressed in HEK293 cells assessed as modulation at alpha1 subunit at 10 uM by Patch clamp method. The series is classed as cell-based. As to conditions: filed as negative allosteric modulator.

A short description of series [13]: Tmax in Wistar rat total plasma at 1 mg/kg, po by HPLC-MS/MS analysis. In kind it is ADME, organism-based.
Series [14] can be described thus: Cmax in Wistar rat total plasma at 1 mg/kg, po by HPLC-MS/MS analysis. The series is classed as ADME, organism-based. Further details: dose 1 mg/kg, route po.
Series [15] in a line: Half life in Wistar rat total plasma at 1 mg/kg, iv by HPLC-MS/MS analysis. In kind it is ADME, organism-based.
A short description of series [16]: AUC (0 to infinity) in Wistar rat total plasma at 1 mg/kg, po by HPLC-MS/MS analysis. The series is classed as ADME, organism-based. Further details: time infinity, dose 1 mg/kg, route po.
The nature of series [17]: Ratio of drug level in brain to plasma in Wistar rat at 1 mg/kg, iv by HPLC-MS/MS analysis. The note with it: brain and plasma, read-out: BPR. The series is classed as ADME, organism-based.
Series [18] is described as follows: Volume of distribution in Wistar rat plasma at 1 mg/kg, iv by HPLC-MS/MS analysis. In kind it is ADME, organism-based.
Series [19] in a line: Clearance in Wistar rat plasma at 1 mg/kg, iv by HPLC-MS/MS analysis. The series is classed as ADME, organism-based.
Series [20] deals with Voltage-gated inwardly rectifying potassium channel KCNH2 (Homo sapiens, UniProt Q12809). The series can be described thus: Inhibition of hERG expressed in CHO cells stably at -80 mV holding potential by automated patch clamp method. The series is classed as toxicity, cell-based.
[21] abbreviates: filed as negative allosteric modulator.

Chain of Voltage-gated inwardly rectifying potassium channel KCNH2 (Q12809 whole entry): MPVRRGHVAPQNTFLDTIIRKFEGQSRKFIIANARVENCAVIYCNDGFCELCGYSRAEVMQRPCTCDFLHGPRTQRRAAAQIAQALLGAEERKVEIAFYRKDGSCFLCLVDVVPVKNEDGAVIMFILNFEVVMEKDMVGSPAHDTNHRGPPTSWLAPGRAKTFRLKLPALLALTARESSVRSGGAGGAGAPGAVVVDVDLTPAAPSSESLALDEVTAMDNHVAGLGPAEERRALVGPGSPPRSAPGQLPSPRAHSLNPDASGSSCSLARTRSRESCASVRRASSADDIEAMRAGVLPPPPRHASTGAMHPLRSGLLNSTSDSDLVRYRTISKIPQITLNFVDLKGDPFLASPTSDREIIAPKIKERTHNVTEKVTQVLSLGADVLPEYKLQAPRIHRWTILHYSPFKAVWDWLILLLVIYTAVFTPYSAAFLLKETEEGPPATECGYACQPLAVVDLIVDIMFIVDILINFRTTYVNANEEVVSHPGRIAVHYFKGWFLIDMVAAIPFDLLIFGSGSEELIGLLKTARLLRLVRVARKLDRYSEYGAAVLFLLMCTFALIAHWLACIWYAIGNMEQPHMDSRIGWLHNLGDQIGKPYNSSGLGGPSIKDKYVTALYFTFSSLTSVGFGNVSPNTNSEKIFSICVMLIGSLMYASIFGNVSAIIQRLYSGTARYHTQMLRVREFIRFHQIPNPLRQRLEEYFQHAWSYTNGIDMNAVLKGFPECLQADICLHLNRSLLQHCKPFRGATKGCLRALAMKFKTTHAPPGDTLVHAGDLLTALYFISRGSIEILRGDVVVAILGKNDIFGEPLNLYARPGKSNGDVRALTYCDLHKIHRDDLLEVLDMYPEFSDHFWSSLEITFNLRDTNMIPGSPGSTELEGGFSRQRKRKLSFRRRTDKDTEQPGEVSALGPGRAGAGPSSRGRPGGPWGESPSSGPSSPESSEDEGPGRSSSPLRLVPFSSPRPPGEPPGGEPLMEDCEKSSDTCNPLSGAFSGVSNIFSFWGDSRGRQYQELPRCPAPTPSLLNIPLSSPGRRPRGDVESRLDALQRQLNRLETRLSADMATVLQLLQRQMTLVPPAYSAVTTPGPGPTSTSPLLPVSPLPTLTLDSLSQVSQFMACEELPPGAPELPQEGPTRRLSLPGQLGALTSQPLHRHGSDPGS

As for `CC(=O)N1Cc2ccc(OCc3c(C)nnn3-c3ccc(F)cc3)nc2C1`, the results for the microsomal CLint at 2.5 µM in series [1] and in series [3] were 9 µL/min/mg and 25 µL/min/mg, respectively. In addition, the figures for the AUC(0-inf) in series [2] and in [16] were 301 ng·h/mL and 43.7 ng·h/mL, respectively. In series [4], the Papp at 10 µM turned out to be 54.5 ×10⁻⁶ cm/s. Also, the Ratio in series [5] is 0.9. Further, the Kp at 1.5 h in series [6] worked out at 0.38. Further, the half-life in [7] is 51.6 min; in series [15], 13.8 min. Further, the figures for the Activity in [8] (setting [21]), in [10] and in [12] were -30%, -19% and -7%, respectively. The bioavailability in series [9] turned out to be 14.5%. Further, in series [11], the Ki was found to be 3.2 nM. Also, the Tmax in series [13] amounted to 30 min. The Cmax in series [14] turned out to be 47.6 ng/mL. Besides, the Kp in [17] worked out at 0.38. In series [18], this compound displayed a Vd of 1.09 L/kg. The clearance in series [19] was 55.5 mL/min/kg. Also, in series [20], the midpoint of inhibition, the IC50, lay at 30000 nM.

In the case of `Cc1nnn(-c2ccc(F)cc2)c1COc1ccc2c(n1)CCN(C(=O)C1CCOC1)C2` (stereo not given), the microsomal CLint at 2.5 µM amounted to 13 µL/min/mg in series [1] and 29 µL/min/mg in series [3]. In addition, the Papp at 10 µM in series [4] came to 44.6 ×10⁻⁶ cm/s. The Ratio in series [5] is 1.1. Also, in series [6], the Kp at 1.5 h was 0.21. For the same compound, the Activity was -39% in series [8] (setting [21]), -34% in series [10] and -7% in [12]. Moreover, the Ki in [11] was determined as 42 nM. Besides, the IC50 in series [20] amounted to 30000 nM.

As for `Cc1nnn(-c2ccc(F)cc2)c1COc1ccc2c(n1)CCN(CCS(C)(=O)=O)C2=O`, the microsomal CLint at 2.5 µM in series [1] amounted to 1 µL/min/mg; in [3] it was 9 µL/min/mg. In series [4], the Papp at 10 µM stood at 22 ×10⁻⁶ cm/s. For the same compound, the Ratio in series [5] is on record as 3.2. The Kp at 1.5 h in series [6] came out at 0.02. Further, the Activity in series [8] is -51%; in [10], -41%; in series [12] it was -16%. Moreover, the Ki in series [11] came to 55 nM. The compound further showed a 50% inhibitory concentration (IC50) in series [20] of 30000 nM.

`CC(=O)N1CCc2nc(OCc3c(C)nnn3-c3ccc(F)cc3)ccc2C1`: the microsomal CLint at 2.5 µM in series [1] is 18 µL/min/mg; in series [3], 26 µL/min/mg. Moreover, the AUC(0-inf) in series [2] came out at 218 ng·h/mL; in series [16], 20.4 ng·h/mL. Also, the Papp at 10 µM in [4] amounted to 52.8 ×10⁻⁶ cm/s. In addition, the Ratio in series [5] came to 0.74. Moreover, the Kp at 1.5 h in series [6] is 0.45. Besides, the half-life in series [7] was 42.6 min; in series [15] it was 12 min. Also, the Activity is -36% in series [8] (setting [21]), -25% in [10] and 0% in [12]. This compound also yielded a bioavailability in series [9] of 9.4%. Moreover, in series [11], the Ki was 28 nM. For the same compound, the Tmax in series [13] was found to be 30 min. The peak level in series [14] (Cmax) was 21.4 ng/mL. The Kp in series [17] came to 0.46. In series [18], the Vd worked out at 1.36 L/kg. Besides, the clearance in [19] amounted to 77.9 mL/min/kg. In addition, the IC50 in series [20] is > 30000 nM.
